Patent US20250296959A1, “B7-H3 TARGETING PEPTIDES AND CONSTRUCTS THEREOF” (Mariana Oncology Inc., priority 2024, published 2025)
Starred links: 1 amine or outer side, 2 acyl side, 3 side chain; linkers in the order of their positions; H or OH if unused. Positions of bridges follow the written chain, without caps; N, C: chain ends. Non-standard residues stand in square brackets, D forms with d. Residues, ends and D or L forms follow the SMILES beside them. Groups on a side chain read outwards from the residue. *: point of attachment. X4 = O=C(O)CN1CCN(CC(=O)O)CCN([C@H](CCC(=O)*)C(=O)O)CCN(CC(=O)O)CC1; Ala(piperidin-4-yl) = O=C([C@H](CC1CCN([*:3])CC1)N[*:1])[*:2]; DOTA = O=C(O)CN1CCN(CC(=O)O)CCN(CC(=O)*)CCN(CC(=O)O)CC1; Trp(5-Cl) = N[C@@H](Cc1c[nH]c2ccc(Cl)cc12)C(=O)O; Trp(5-F) = N[C@@H](Cc1c[nH]c2ccc(F)cc12)C(=O)O; X1 = C[C@@H](c1ccccc1)[C@H](N[*:1])C(=O)[*:2]; γGlu = O=C(O)[C@H](CCC(=O)[*:2])N[*:1]; 1Nal = N[C@@H](Cc1cccc2ccccc12)C(=O)O; Ala(4-THP) = N[C@@H](CC1CCOCC1)C(=O)O; Val(3-OH) = CC(C)(O)[C@H](N)C(=O)O; NMeF = CN[C@@H](Cc1ccccc1)C(=O)O; Tle = CC(C)(C)[C@H](N)C(=O)O; hLeu = CC(C)CC[C@H](N)C(=O)O; NMeC = CN[C@@H](CS)C(=O)O

biological target: T1, human 4lg B7-H3 (Homo sapiens, UniProt Q5ZPR3); experiment: Affinity determination by surface plasmon resonance (SPR) to 4Ig B7-H3; settings: SPR KD—25° C., 4Ig B7-H3; 25° C. flow cell temperature
T1 sequence (Q5ZPR3 29-534): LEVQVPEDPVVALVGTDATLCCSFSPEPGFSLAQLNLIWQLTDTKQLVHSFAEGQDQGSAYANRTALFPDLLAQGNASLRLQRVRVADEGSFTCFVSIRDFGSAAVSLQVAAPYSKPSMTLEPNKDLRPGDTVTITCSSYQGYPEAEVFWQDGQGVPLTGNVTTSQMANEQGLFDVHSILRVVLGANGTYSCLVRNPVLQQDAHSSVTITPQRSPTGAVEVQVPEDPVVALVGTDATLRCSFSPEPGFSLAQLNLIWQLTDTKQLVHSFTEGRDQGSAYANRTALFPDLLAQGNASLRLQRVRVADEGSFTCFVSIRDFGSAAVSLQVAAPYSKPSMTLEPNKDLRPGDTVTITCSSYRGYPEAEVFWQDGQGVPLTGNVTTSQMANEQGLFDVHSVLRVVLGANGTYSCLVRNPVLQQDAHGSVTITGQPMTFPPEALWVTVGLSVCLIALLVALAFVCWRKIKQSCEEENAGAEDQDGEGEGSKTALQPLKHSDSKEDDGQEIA

Row | Structure (SMILES) | Kd
1 | CC(=O)N[C@@H](CCC(C)C)C(=O)N[C@@H](Cc1ccc(O)cc1)C(=O)N[C@H]1CSSC[C@@H](C(=O)N[C@@H](Cc2c[nH]c3ccc(F)cc23)C(=O)N[C@@H](Cc2ccccc2)C(=O)N2CCC[C@H]2C(N)=O)NC(=O)[C@H](Cc2ccc(O)cc2)NC(=O)[C@H](C(C)C)NC(=O)[C@H](CC(=O)O)NC(=O)[C@H](CC2CCOCC2)NC(=O)[C@H](CCCCNC(=O)CN2CCN(CC(=O)O)CCN(CC(=O)O)CCN(CC(=O)O)CC2)NC(=O)CNC(=O)[C@H](C(C)C)NC1=O [compound 292, Ac-hLeu-Y-C-V-G-Lys(DOTA)-ThpA-D-V-Y-C-5FW-F-Pro-CONH2] (Ac-[hLeu]YCVGK(DOTA)[Ala(4-THP)]DVYC[Trp(5-F)]FP-NH2; disulfide 3-11) | 1 to 10 nM
2 | CC(=O)N[C@@H](CCC(C)C)C(=O)N[C@@H](Cc1ccc(O)cc1)C(=O)N[C@H]1CSSC[C@@H](C(=O)N[C@@H](Cc2c[nH]c3ccc(F)cc23)C(=O)N[C@@H](Cc2ccccc2)C(=O)N[C@H](C(=O)N[C@H](CCCCNC(=O)CN2CCN(CC(=O)O)CCN(CC(=O)O)CCN(CC(=O)O)CC2)C(=O)O)[C@@H](C)O)NC(=O)[C@H](Cc2ccc(O)cc2)NC(=O)[C@H](C(C)C)NC(=O)[C@H](CC(=O)O)NC(=O)[C@H](CC2CCOCC2)NC(=O)[C@H](CCCCN)NC(=O)CNC(=O)[C@H](C(C)(C)C)NC1=O [compound 332, Ac-hLeu-Y-C-Tbg-G-K-ThpA-D-V-Y-C-5FW-F-Thr-dLys(DOTA)-COOH] (Ac-[hLeu]YC[Tle]GK[Ala(4-THP)]DVYC[Trp(5-F)]FT[dK](DOTA)-OH; disulfide 3-11) | < 1 nM

Other lines, results leading:

Row | Kd | Structure (SMILES)
3 | 1 to 10 nM | CC(=O)N[C@@H](CCC(C)C)C(=O)N[C@@H](Cc1ccc(O)cc1)C(=O)N(C)[C@H]1CSSC[C@@H](C(=O)N[C@@H](Cc2c[nH]c3ccc(F)cc23)C(=O)N[C@@H](Cc2ccccc2)C(=O)N[C@H](C(=O)N[C@H](CCCCNC(=O)CN2CCN(CC(=O)O)CCN(CC(=O)O)CCN(CC(=O)O)CC2)C(N)=O)[C@@H](C)O)NC(=O)[C@H](Cc2ccc(O)cc2)NC(=O)[C@H](C(C)C)NC(=O)[C@H](CC(=O)O)NC(=O)[C@H](Cc2ccc(O)cc2)NC(=O)[C@H](CCCCN)NC(=O)CNC(=O)[C@H](C(C)C)NC1=O [compound 237, Ac-hLeu-Y-NMeCys-V-G-K-Y-D-V-Y-C-5FW-F-Thr-dLys(DOTA)-CONH2] (Ac-[hLeu]Y[NMeC]VGKYDVYC[Trp(5-F)]FT[dK](DOTA)-NH2; disulfide 3-11)
4 | 1 to 10 nM | CC(=O)N[C@@H](CCC(C)C)C(=O)N[C@@H](Cc1ccc(O)cc1)C(=O)N[C@H]1CSSC[C@@H](C(=O)N[C@@H](Cc2c[nH]c3ccc(F)cc23)C(=O)N(C)[C@@H](Cc2ccccc2)C(=O)N[C@H](C(=O)N[C@H](CCCCNC(=O)CN2CCN(CC(=O)O)CCN(CC(=O)O)CCN(CC(=O)O)CC2)C(N)=O)[C@@H](C)O)NC(=O)[C@H](Cc2ccc(O)cc2)NC(=O)[C@H](C(C)C)NC(=O)[C@H](CC(=O)O)NC(=O)[C@H](Cc2ccc(O)cc2)NC(=O)[C@H](CCCCN)NC(=O)CNC(=O)[C@H](C(C)C)NC1=O [compound 205, Ac-hLeu-Y-C-V-G-K-Y-D-V-Y-C-5FW-NMePhe-Thr-dLys(DOTA)-CONH2] (Ac-[hLeu]YCVGKYDVYC[Trp(5-F)][NMeF]T[dK](DOTA)-NH2; disulfide 3-11)

same assay, conditions: SPR KD—37° C., 4Ig B7-H3; 37° C. flow cell temperature

Row | Structure (SMILES) | Kd
5 | CC(=O)N[C@@H](CCC(C)C)C(=O)N[C@@H](Cc1ccc(O)cc1)C(=O)N[C@H]1CSSC[C@@H](C(=O)N[C@@H](Cc2c[nH]c3ccc(Cl)cc23)C(=O)N[C@@H](Cc2ccccc2)C(=O)N[C@H](C(=O)N[C@H](CCCCNC(=O)CN2CCN(CC(=O)O)CCN(CC(=O)O)CCN(CC(=O)O)CC2)C(=O)O)C(C)(C)O)NC(=O)[C@H](Cc2ccc(O)cc2)NC(=O)[C@H](C(C)C)NC(=O)[C@H](CC(=O)O)NC(=O)[C@H](CC2CCOCC2)NC(=O)[C@H](CC2CCNCC2)NC(=O)CNC(=O)[C@H](C(C)(C)C)NC1=O [compound 457, Ac-hLeu-Y-C-Tbg-G-PipAla-ThpA-D-V-Y-C-5ClW-F-hydroxyVal-dLys(DOTA)-COOH] (Ac-[hLeu]YC[Tle]G[Ala(piperidin-4-yl)][Ala(4-THP)]DVYC[Trp(5-Cl)]F[Val(3-OH)][dK](DOTA)-OH; disulfide 3-11) | < 1 nM
6 | CC(=O)N[C@@H](CCC(C)C)C(=O)N[C@@H](Cc1ccc(O)cc1)C(=O)N[C@H]1CSSC[C@@H](C(=O)N[C@@H](Cc2cccc3ccccc23)C(=O)N[C@H](C(=O)N[C@H](C(=O)N[C@H](CCCCNC(=O)CN2CCN(CC(=O)O)CCN(CC(=O)O)CCN(CC(=O)O)CC2)C(=O)O)C(C)(C)O)[C@@H](C)c2ccccc2)NC(=O)[C@H](Cc2ccc(O)cc2)NC(=O)[C@H](C(C)C)NC(=O)[C@H](CC(=O)O)NC(=O)[C@H](CC2CCOCC2)NC(=O)[C@H](CC2CCNCC2)NC(=O)CNC(=O)[C@H](C(C)(C)C)NC1=O [compound 516, Ac-hLeu-Y-C-Tbg-G-PipAla-ThpA-D-V-Y-C-1Nal-[(2S, 3S)beta-Me-Phe]-hydroxyVal-dLys(DOTA)-COOH] (Ac-[hLeu]YC[Tle]G[Ala(piperidin-4-yl)][Ala(4-THP)]DVYC[1Nal][X1][Val(3-OH)][dK](DOTA)-OH; disulfide 3-11) | < 1 nM

Next, values leading:

Row | Kd | Structure (SMILES)
7 | < 1 nM | CC(=O)N[C@@H](CCC(C)C)C(=O)N[C@@H](Cc1ccc(O)cc1)C(=O)N[C@H]1CSSC[C@@H](C(=O)N[C@@H](Cc2c[nH]c3ccc(F)cc23)C(=O)N[C@@H](Cc2ccccc2)C(=O)N[C@H](C(=O)N[C@H](CCC(=O)O)C(N)=O)C(C)(C)O)NC(=O)[C@H](Cc2ccc(O)cc2)NC(=O)[C@H](C(C)C)NC(=O)[C@H](CC(=O)O)NC(=O)[C@H](CC2CCOCC2)NC(=O)[C@H](CC2CCN(C(=O)CC[C@H](C(=O)O)N3CCN(CC(=O)O)CCN(CC(=O)O)CCN(CC(=O)O)CC3)CC2)NC(=O)CNC(=O)[C@H](C(C)(C)C)NC1=O [compound 476, Ac-hLeu-Y-C-Tbg-G-Pip(R-DOTAGA)Ala-ThpA-D-V-Y-C-5FW-F-hydroxyVal-dGlu-CONH2] (Ac-[hLeu]YC[Tle]G[Ala(piperidin-4-yl)](X4)[Ala(4-THP)]DVYC[Trp(5-F)]F[Val(3-OH)][dE]-NH2; disulfide 3-11)
8 | < 1 nM | CC(=O)N[C@@H](CCC(C)C)C(=O)N[C@@H](Cc1ccc(O)cc1)C(=O)N[C@H]1CSSC[C@@H](C(=O)N[C@@H](Cc2c[nH]c3ccc(F)cc23)C(=O)N[C@@H](Cc2ccccc2)C(=O)N[C@H](C(=O)N[C@H](CCC(=O)O)C(N)=O)C(C)(C)O)NC(=O)[C@H](Cc2ccc(O)cc2)NC(=O)[C@H](C(C)C)NC(=O)[C@H](CC(=O)O)NC(=O)[C@H](CC2CCN(C(=O)CC[C@H](NC(=O)CN3CCN(CC(=O)O)CCN(CC(=O)O)CCN(CC(=O)O)CC3)C(=O)O)CC2)NC(=O)[C@H](CC2CCNCC2)NC(=O)CNC(=O)[C@H](C(C)(C)C)NC1=O [compound 459, Ac-hLeu-Y-C-Tbg-G-PipAla-Pip(gE-DOTA)Ala-D-V-Y-C-5FW-F-hydroxyVal-dGlu-CONH2] (Ac-[hLeu]YC[Tle]G[Ala(piperidin-4-yl)][Ala(piperidin-4-yl)]([γGlu-DOTA])DVYC[Trp(5-F)]F[Val(3-OH)][dE]-NH2; disulfide 3-11)
